Assay results from patent publication US11952328B2, “Selective ship inhibitors for treating disease” (THE RESEARCH FOUNDATION FOR THE STATE UNIVERSITY OF NEW YORK, priority 2018, dated 2024).

Assays:
NK cell compartment = settings: uninterrupted, extended-duration treatment, six days each week; Fernandes et al. 2015; cited from earlier work
CT26 = CT26 viability following in vitro treatment; format: cell-based, mice; settings: in vitro 24 h; only 20 μM vs 0 μM adjusted p=0.0463, other concentrations N.S.
Description: FIG. 7A and FIG. 7B show CT26 (FIG. 7A) and MC-38 (FIG. 7B) viability following in vitro treatment with 3AC for 24 h at indicated doses. Relative viability is expressed as frequency compared to solvent only treated cells. Kill curve summarizes pooled data from three independent experiments using six replicate wells/concentration with mean±SEM indicated. BALB/C mice were challenged with subcutaneous injection of CT26 colon carcinoma cells in the right flank. Mice were treated with either 2 consecutive days of 3AC or vehicle control each week as in FIG. 4A. Tumor size at […] 28 days (FIG. 7C), and tumor weight on day 28 determined after dissection of tumor (FIG. 7E). […] C57BL/6 mice were challenged with subcutaneous injection of MC-38 colon carcinoma cells in the right flank. Mice were treated with either 2 consecutive days of SHIP inhibitor or vehicle control each week as in FIG. 4A. Tumor size at 14, 21 and 25 days (FIG. 7D), and tumor weight (FIG. 7F) on day 25 were determined after dissection of tumor. […] FIG. 7A (n=18 per group. One-way ANOVA with Dunnett's multiple comparisons. 0 μM vs. 20 μM Adjusted p value=0.0463. All other concentrations of SHIP inhibitor compared with solvent only N.S.). FIG. 7B (n=18 per group. One-way ANOVA with Dunnett's multiple comparisons. All concentrations of SHIP inhibitor compared with solvent only N.S.). […]

**Q.** Which results are given for CC(C)CCC[C@@H](C)[C@H]1CC[C@H]2[C@@H]3CCC4C[C@H](N)CC[C@]4(C)[C@H]3CC[C@]12C (stereo partly drawn) [Compound 3AC, 3-α-aminocholestane]?
**A.** NK cell compartment function (acute rejection of MHC-I mismatched BM graft) (NK cell compartment): disabled NK cell compartment; CT26 viability (direct killing) (CT26): resistant to direct killing
